Assay results published in patent publication US10414763B2 (CANCER RESEARCH TECHNOLOGY LIMITED, priority 2014, dated 2019).

Molecular target: T1, full-length human PKCι (Homo sapiens, UniProt P41743)
T1 construct: Recombinant, full-length human PKCι expressed in Sf21 insect cells is also commercially available; purchased EMD Millipore; host or cells: Sf21 insect cells (baculovirus)
T1 sequence (P41743 1-596): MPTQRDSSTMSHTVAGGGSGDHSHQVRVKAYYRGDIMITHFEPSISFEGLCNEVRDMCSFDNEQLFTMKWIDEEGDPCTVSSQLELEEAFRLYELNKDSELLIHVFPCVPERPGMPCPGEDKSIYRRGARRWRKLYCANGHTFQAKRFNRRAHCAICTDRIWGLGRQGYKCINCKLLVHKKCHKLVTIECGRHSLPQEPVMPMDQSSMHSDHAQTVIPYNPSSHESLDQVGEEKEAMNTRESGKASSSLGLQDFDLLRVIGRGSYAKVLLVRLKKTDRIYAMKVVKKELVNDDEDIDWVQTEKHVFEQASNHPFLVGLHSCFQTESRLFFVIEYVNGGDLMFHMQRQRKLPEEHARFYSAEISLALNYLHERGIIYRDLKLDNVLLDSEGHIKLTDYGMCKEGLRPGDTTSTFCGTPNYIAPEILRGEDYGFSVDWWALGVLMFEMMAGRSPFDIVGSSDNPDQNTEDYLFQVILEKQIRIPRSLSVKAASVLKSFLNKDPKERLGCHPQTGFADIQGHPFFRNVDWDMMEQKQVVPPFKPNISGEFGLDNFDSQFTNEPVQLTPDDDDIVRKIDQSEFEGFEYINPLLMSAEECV
Test: PKCι IC50 IMAP fluorescence polarisation assay, full-length enzyme, 150 μM ATP
Type: biochemical
Settings: read-out: IC50 in IMAP assay against full length PKCi at 150 μM ATP
Method in brief: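 IMAP fluorescence polarisation kinase assay: 15 pM baculovirus-expressed human PKCiota with 100 nM FAM-pseudosubstrate peptide and 150 μM ATP, 1 h at 25 °C. IMAP detection reagent then 2 h at 25 °C before FP measurement. Inhibition referenced to no-compound and no-enzyme controls for IC50 fitting.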

IC50 [nM]	Compound
100 to 1000	Clc1ccccc1-c1cc2c(-c3nc(N[C@@H]4[C@@H]5CC[C@H]4CNC5)c4c(C5CC5)cncc4n3)ccnc2[nH]1 [Example 26, (1R,5S,8S)-3-Aza-bicyclo[3.2.1]oct-8-yl-{2-[2-(2-chloro-phenyl)-1H-pyrrolo[2,3-b]pyridin-4-yl]-5-cyclopropyl-pyrido[3,4-d]pyrimidin-4-yl}-amine]
1000 to 10000	OC[C@@H]1CNCCN1c1nc(-c2ccnc3[nH]c(C(F)(F)F)cc23)nc2cncc(C3CCC3)c12 [Example 5, {(S)-1-[5-Cyclobutyl-2-(2-trifluoromethyl-1H-pyrrolo[2,3-b]pyridin-4-yl)-pyrido[3,4-d]pyrimidin-4-yl]-piperazin-2-yl}-methanol]
< 100	C[C@@]1(O)CNCC[C@H]1Nc1nc(-c2ccnc3[nH]c(-c4cc(F)ccc4Cl)cc23)nc2cncc(C3CC3)c12 (racemic) [Example 354, rac-(3R,4R)-4-{2-[2-(2-Chloro-5-fluoro-phenyl)-1H-pyrrolo[2,3-b]pyridin-4-yl]-5-cyclopropyl-pyrido[3,4-d]pyrimidin-4-ylamino}-3-methyl-piperidin-3-ol]
< 100	Cc1cc2c(-c3nc(N4CC[C@]5(O)CNCC[C@H]45)c4c(C5CCC5)cncc4n3)ccnc2[nH]1 (racemic) [Example 117, (±)-(3aS,7aS)-1-[5-Cyclobutyl-2-(2-methyl-1H-pyrrolo[2,3-b]pyridin-4-yl)-pyrido[3,4-d]pyrimidin-4-yl]-octahydro-pyrrolo [3,2-c]pyridin-3a-ol]
< 100	Clc1ccc(Cl)c(-c2cc3c(-c4nc(N5CCNCC5)c5c(C6CC6)cncc5n4)ccnc3[nH]2)c1 [Example 46, 5-Cyclopropyl-2-[2-(2,5-dichloro-phenyl)-1H-pyrrolo[2,3-b]pyridin-4-yl]-4-piperazin-1-yl-pyrido[3,4-d]pyrimidine]
< 100	CCSc1cc2c(-c3nc(N4CCNCC4)c4c(C5CCC5)cncc4n3)ccnc2[nH]1 [Example 133, 5-Cyclobutyl-2-(2-ethylsulfanyl-1H-pyrrolo[2,3-b]pyridin-4-yl)-4-piperazin-1-yl-pyrido[3,4-d]pyrimidine]
< 100	C[C@@H]1CNCC[C@H]1Nc1nc(-c2ccnc(Nc3nc(F)ccc3F)c2)nc2cncc(C3CC3)c12 (single isomer, unassigned) [Example 335, 5-Cyclopropyl-2-[2-[(3,6-difluoro-2-pyridyl)amino]-4-pyridyl]-N-[(3R,4R)-3-methyl-4-piperidyl]pyrido[3,4-d]pyrimidin-4-amine or enantiomer]
< 100	CSc1cc2c(-c3nc(N4CCNCC4)c4c(C5CC5)cncc4n3)ccnc2[nH]1 [Example 16, 5-Cyclopropyl-2-(2-methylsulfanyl-1H-pyrrolo[2,3-b]pyridin-4-yl)-4-piperazin-1-yl pyrido[3,4-d]pyrimidine]
< 100	C[C@@H]1C[C@@H](Nc2nc(-c3ccnc(Nc4nc(F)ccc4F)c3)nc3cncc(C4CCC4)c23)CCN1 (racemic) [Example 387, {5-Cyclobutyl-2-[2-(3,6-difluoro-pyridin-2-ylamino)-pyridin-4-yl]-pyrido[3,4-d]pyrimidin-4-yl}-(rac-(2R,4S)-2-methyl-piperidin-4-yl)-amine]
< 100	FC(F)(F)c1cc2c(-c3nc(N4CCOC5CNCC54)c4c(C5CC5)cncc4n3)ccnc2[nH]1 (stereo not shown) [Example 155, 5-Cyclopropyl-4-(hexahydro-pyrrolo[3,4-b] [1,4]oxazin-4-yl)-2-(2-trifluoromethyl-1H-pyrrolo[2,3-b]pyridin-4-yl)-pyrido[3,4-d]pyrimidine]
< 100	O[C@]12CCN(c3nc(-c4ccnc5[nH]c(-c6ccccc6Cl)cc45)nc4cncc(C5CC5)c34)[C@H]1CCNC2 (racemic) [Example 143, (±)-(3aS,7aS)-1-{2-[2-(2-Chloro-phenyl)-1H-pyrrolo[2,3-b]pyridin-4-yl]-5-cyclopropyl-pyrido[3,4-d]pyrimidin-4-yl}-octahydro-pyrrolo [3,2-c]pyridin-3a-ol]
< 100	C[C@@H]1CNCC[C@H]1Nc1nc(-c2ccnc(Nc3nc(F)ccc3F)c2)nc2cncc(C3CC3)c12 (racemic) [Example 223, (±)-{5-Cyclopropyl-2-[2-(3,6-difluoro-pyridin-2-ylamino)-pyridin-4-yl]-pyrido[3,4-d]pyrimidin-4-yl}-((3,4-trans)-3-methyl-piperidin-4-yl)-amine]

Second part, the molecule before the results:

Compound	IC50 [nM]
Cc1cncc(-c2cc3c(-c4nc(N[C@H]5CCNCC5(C)C)c5c(C6CC6)cncc5n4)ccnc3[nH]2)c1 [Example 362, {5-Cyclopropyl-2-[2-(5-methyl-pyridin-3-yl)-1H-pyrrolo[2,3-b]pyridin-4-yl]-pyrido[3,4-d]pyrimidin-4-yl}-((S)-3,3-dimethyl-piperidin-4-yl)-amine]	< 100
O[C@H]1CNCC[C@H]1Nc1nc(-c2ccnc(Nc3nc(F)cc(F)c3F)c2)nc2cncc(C3CC3)c12 (racemic) [Example 307, rac-(3S,4R)-4-{5-Cyclopropyl-2-[2-(3,4,6-trifluoro-pyridin-2-ylamino)-pyridin-4-yl]-pyrido[3,4-d]pyrimidin-4-ylamino}-piperidin-3-ol]	< 100
CC1(C)CNCC[C@@H]1Nc1nc(-c2ccnc(Nc3cc4ccccn4n3)c2)nc2cncc(C3CCC3)c12 [Example 380, {5-Cyclobutyl-2-[2-(pyrazolo[1,5-a]pyridin-2-ylamino)-pyridin-4-yl]-pyrido[3,4-d]pyrimidin-4-yl}-((S)-3,3-dimethyl-piperidin-4-yl)-amine]	< 100
CC1(C)CNCCC1Nc1nc(-c2ccnc(Nc3cc(F)cc(F)n3)c2)nc2cncc(C3CCC3)c12 (stereo not shown) [Example 105, {5-Cyclobutyl-2-[2-(4,6-difluoro-pyridin-2-ylamino)-pyridin-4-yl]-pyrido[3,4-d]pyrimidin-4-yl}-(3,3-dimethyl-piperidin-4-yl)-amine]	100 to 1000
CC1(C)CNCC[C@H]1Nc1nc(-c2ccnc(Nc3cc4ccccn4n3)c2)nc2cncc(C3CCC3)c12 [Example 379, {5-Cyclobutyl-2-[2-(pyrazolo[1,5-a]pyridin-2-ylamino)-pyridin-4-yl]-pyrido[3,4-d]pyrimidin-4-yl}-((R)-3,3-dimethyl-piperidin-4-yl)-amine]	< 100
CC1(C)CNCCC1Nc1nc(-c2ccnc(Nc3cc4ccccn4n3)c2)nc2cncc(C3CC3)c12 (stereo not shown) [Example 35, {5-Cyclopropyl-2-[2-(pyrazolo[1,5-a]pyridin-2-ylamino)-pyridin-4-yl]-pyrido[3,4-d]pyrimidin-4-yl}-(3,3-dimethyl-piperidin-4-yl)-amine]	< 100
O=C1NC2CC(Nc3nc(-c4ccnc5[nH]c6ccccc6c45)nc4cncc(C5CCC5)c34)CC2O1 (stereo not shown) [Example 376, 5-[5-Cyclobutyl-2-(9H-pyrido[2,3-b]indol-4-yl)-pyrido[3,4-d]pyrimidin-4-ylamino]-hexahydro-cyclopentoxazol-2-one]	1000 to 10000
C[C@@H]1CNCC[C@@H]1Nc1nc(-c2ccnc(Nc3ncccc3F)c2)nc2cncc(C3CCC3)c12 (racemic) [Example 282, {5-Cyclobutyl-2-[2-(3-fluoro-pyridin-2-ylamino)-pyridin-4-yl]-pyrido[3,4-d]pyrimidin-4-yl}-(rac-(3R,4S)-3-methyl-piperidin-4-yl)-amine]	< 100
CN(c1nc(-c2ccnc3[nH]c(-c4cccnc4)cc23)nc2cncc(C3CC3)c12)C1CCNCC1(C)C (stereo not shown) [Example 61, [5-Cyclopropyl-2-(2-pyridin-3-yl-1H-pyrrolo[2,3-b]pyridin-4-yl)-pyrido[3,4-d]pyrimidin-4-yl]-(3,3-dimethyl-piperidin-4-yl)-methyl-amine]	< 100
CC1(C)CNCC[C@@H]1Nc1nc(-c2ccnc3[nH]c(-c4ccccc4F)cc23)nc2cncc(C3CC3)c12 [Example 394, {5-Cyclopropyl-2-[2-(2-fluoro-phenyl)-1H-pyrrolo[2,3-b]pyridin-4-yl]-pyrido[3,4-d]pyrimidin-4-yl}-((S)-3,3-dimethyl-piperidin-4-yl)-amine]	< 100
Cn1nc(Nc2cc(-c3nc(N[C@H]4CCNCC4(C)C)c4c(C5CCC5)cncc4n3)ccn2)c2ccccc21 [Example 284, {5-Cyclobutyl-2-[2-(1-methyl-1H-indazol-3-ylamino)-pyridin-4-yl]-pyrido[3,4-d]pyrimidin-4-yl}-((S)-3,3-dimethyl-piperidin-4-yl)-amine]	< 100
Cc1cc2c(-c3nc(N(C)[C@H]4CCNCC4(C)C)c4c(C5CC5)cncc4n3)ccnc2[nH]1 [Example 212, [5-Cyclopropyl-2-(2-methyl-1H-pyrrolo[2,3-b]pyridin-4-yl)-pyrido[3,4-d]pyrimidin-4-yl]-((S)-3,3-dimethyl-piperidin-4-yl)-methyl-amine]	< 100
C[C@@H]1CNCC[C@@H]1Nc1nc(-c2ccnc(Nc3ncc(F)cc3F)c2)nc2cncc(C3CCC3)c12 (racemic) [Example 283, {5-Cyclobutyl-2-[2-(3,5-difluoro-pyridin-2-ylamino)-pyridin-4-yl]-pyrido[3,4-d]pyrimidin-4-yl}-(rac-(3R,4S)-3-methyl-piperidin-4-yl)-amine]	< 100
